For the assay, the system named is mouse neutrophils. As to the kind of experiment: In vitro NET assay, mouse neutrophils. It counts as cell-based. As to conditions: pretreatment 10 μM for 15 min, ionomycin 4 µM 4 h. On the procedure:
Mouse peripheral blood was collected by retro-orbital puncture in ethylenediaminetetraacetic acid (EDTA) anticoagulated buffer supplemented with 1% endotoxin-free BSA in sterile PBS. Neutrophils were isolated by Percoll gradient centrifugation as described previously. The purity of neutrophils was more than 90% as confirmed by the Wright-Giemsa stain.
Mouse or human neutrophils were resuspended in HEPES-supplemented phenol red-free RPMI1640 medium and 1.5 × 10^4 cells were seeded per well in a 96-well plate. After incubating for 20 min at 37 °C and 5% CO2, the cells were stimulated with vehicle control or ionomycin (Sigma, Catalog No: I24222) (4 µM) for 4 h. Neutrophils were fixed with 4% paraformaldehyde (PFA), washed and permeabilized (0.1% Triton X-100, 0.1% sodium citrate) for 10 min at 4 °C. Subsequently, neutrophils were incubated with blocking buffer (2.5% BSA, 0.5% Tween-20 in 1 × PBS) at room temperature for an hour followed by overnight incubation with the primary antibody against citrullinated histone H4 (H4Cit, 1:250, catalog number: 07-596, Millipore, Burlington, MA). […] Images were obtained with a Zeiss Axiovert 200 M wide-field fluorescence microscope (Zeiss, Oberkochen, Germany) with the Zeiss AxioVision software. The percentages of H4Cit positive neutrophils and neutrophil extracellular traps (NETs) were calculated by quantifying more than 200 randomly selected cells. […]

Consider `Cc1c(-c2cc3ccccc3n2Cc2ccc(F)cc2)nc2cc(C(=O)N3CCC[C@@H](N)C3)ccn12` [JBI-589, (R)-(3-aminopiperidin-1-yl)(2-(1-(4-fluorobenzyl)-1H-indol-2-yl)-3-methylimidazo[1,2-a]pyridin-7-yl)methanone], for which the H4Cit positivity entry is recorded as “markedly diminished” and the NET formation result is recorded as “markedly diminished”.

For the origin of these results see paper PMC9950073, “Alleviation of arthritis through prevention of neutrophil extracellular traps by an orally available inhibitor of protein arginine deiminase 4” (Scientific Reports, 2023).
